Measurements reported in US7736638B2, “Interleukin-15 antagonist peptide” (Centro de Ingenieria Genetica y Biotecnologia, priority 2004, dated 2010).
“Also recorded” adds a separate entry of the source. Ends that are not written are not given here.

Assays:
IL-15Rα-Fc = IL-15Rα-Fc (Homo sapiens, UniProt Q13261); test: IL-15 peptide spot mapping on cellulose filter, binding of IL-15Rα-Fc; settings: 10-mer peptides on cellulose membrane; IL-15 α-Receptor at 5 μg/mL; blue/violet color = positive; listed as 8
Sequence of IL-15Rα-Fc (Q13261 with tags, fused parts or gaps limits assumed): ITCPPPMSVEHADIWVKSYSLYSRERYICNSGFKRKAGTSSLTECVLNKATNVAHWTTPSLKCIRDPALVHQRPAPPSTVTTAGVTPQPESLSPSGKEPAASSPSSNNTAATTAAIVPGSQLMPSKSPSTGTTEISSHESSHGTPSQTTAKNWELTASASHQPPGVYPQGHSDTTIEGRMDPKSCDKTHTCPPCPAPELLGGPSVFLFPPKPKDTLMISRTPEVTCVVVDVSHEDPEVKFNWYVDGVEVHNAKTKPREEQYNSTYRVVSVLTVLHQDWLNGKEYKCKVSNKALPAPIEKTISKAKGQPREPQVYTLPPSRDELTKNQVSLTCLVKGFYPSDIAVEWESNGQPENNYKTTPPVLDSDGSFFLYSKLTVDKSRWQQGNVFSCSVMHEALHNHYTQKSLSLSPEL
Description: To identify IL-15 regions involved in IL-15Rα binding, the peptide spot synthesis approach was used as previously described Frank et. al. The derivation of Whatman 540 paper was carried out estherifying the first anchor component, Fmoc-β-Ala-OH, using N,N′-Diisopropylcarbodiimide (DIC) and N-methylimidazole (NMI) in dry N,N-dimethylformamide (DMF). The spot array on the cellulose membrane was defined anchoring the Fmoc-β-Ala-OH on the previously marked positions, according to the required number of 10-mer peptides (22 peptides, overlapping in 5 residues, 114 amino acids of IL-15 sequence). Besides, a non-related 10 amino acids peptide was synthesized on spot 23 and also on spot 24 only Fmoc-β-Ala-OH was anchoring, both as controls. For the assembly of all these molecules, the standard Fmoc-/tBu chemistry was used. After the final cycle of synthesis, the N-terminus and side chains of all peptides were de-protected.
Cellulose sheet was soaked in ethanol to prevent possible hydrophobic interactions between the peptides on it. Ethanol was exchanged against Tris-buffer saline (TBS) (150 mM NaCl, 10 mM Tris, pH 7.6) by sequential washing. Nonspecific binding was blocked by incubating membrane overnight in 10 mL of TBS blocking buffer (5% Powdered milk in TBS). […]

[1] = test system: IL-15-induced proliferation of CTLL-2 cells; test: CTLL-2 proliferation assay with human IL-15 (MTT staining); format: cell-based; settings: fixed peptide concentration 260 μM
Description: The cytokine-dependent cell line CTLL-2 proliferates in presence of IL-15. IL-15 bound molecules impairing receptor depending signal transduction would inhibit this cell line proliferation. To evaluate the neutralizing capacity the peptide of the present invention, serial dilutions of them were done in 96 well plates (Costar, USA) in 25 μL volume of RPMI medium (Gibco) supplemented with 10% fetal bovine serum (Gibco). Previously washed CTLL-2 cells were added to 5×10^3 cells/well and it was incubated for 30 min. Then, 300 pg of IL-15 were added to each well. Plate was incubated for 72 h at 5% CO2 and 37° C. […] We also evaluated the antagonist effect of 260 μM of this peptide at different IL-15 concentrations (FIG. 3a).

[2] = test system: TNFα-induced apoptosis in L929 cells; test: Apoptosis induction assay in L929 cells (DNA fragmentation assay); format: cell-based; settings: TNFα 100 ng/mL, peptide 260 μM, 24 h
Description: The DNA Fragmentation Assay allows to determine the amount of DNA that is degraded upon treatment of cells with TNF-alpha. The cells' DNA is radioactively labeled by growing the cells in presence of 3H-Thymidine so that radioactive 3H-Thymidine is incorporated into the DNA. After 24 h the cells were treated with Tripsin/EDTA, washed and seeded at 5000 cells per well in a 96 well plate. Then, the labeled cells were incubated with TNFα (100 ng/mL), IL-15 (100 ng/mL), peptides (260 μM) or combinations of TNFα with different peptides.
During this incubation the added agent (e.g. TNFα induces cells to die by apoptosis and consequently the fragmentation of DNA while the DNA of untreated cells remains intact). After 24 h the cells were harvested: during harvesting, the cells were washed out of the wells of the 96 well plate with bidestilated water: the cells and organelles burst and the cell's DNA is set free. The cell fragments and DNA are passed through a filter membrane (glassfiber). Only particles of smaller than 1,5 μm can pass the filter. […] The filter membrane was dried and the amount of radioactivity (what corresponds to the amount of intact DNA) counted in a scintillation counter. The percentage of DNA fragmentation was calculated by comparing the counted radioactivity (counts per minute=cpm) of cells that were not treated with the cpm in cells that were treated with agent.

[3] = biological target: T1, IL-15Rα-Fc fusion protein (R&D 147-IR) (Homo sapiens, UniProt Q13261); test: Colorimetric assay in Tentagel S beads, peptide binding to IL-15Rα; settings: resin-bound peptide, IL-15Rα-Fc at 5 μg/mL
T1 construct: purchased R&D 147-IR
T1 sequence (Q13261 with tags, fused parts or gaps limits assumed): as above
Description: The resin NH2-Tentagel-S (0.24 mmol/g) was washed several times with di-chlorometane (DCM) and methanol. Then, it was incubated in a trifluoroacetic acid (TFA) solution 30% for 10 minutes; washed several times with DCM and incubated in di-isopropilethilamine (DIEA) 5% in DCM for 1 minute. This procedure activated the NH2 groups for synthesis. Later, it was washed with DCM and incubated in di-methylformamide (DMF) for 5 minutes to synthesize the peptide. The conventional Fmoc/tBu strategy of synthesis was used. Coupling reactions were followed by ninhidrine test. Once peptide Sec. No.1 sequence was completed, amino acids side chains were de-protected, leaving it anchored by its C-terminal to the resin.
Resin beads with anchored peptide were several times washed with saline solution (PBS). Non specific interactions were blocked with BSA (1%) in PBS for 1 hour at RT. Then, they were incubated with IL-15Rα-Fc fusion protein (R&D 147-IR) at 5 μg/mL in BSA (1%/PBS) for 16 hours at 4° C. Later, beads were washed in PBS three fold for 5 minutes with shaking and then incubated with anti-Fc IgG human-phosphatase conjugate diluted 1:25000 in BSA (1%/PBS) for three hours at RT. They were extensively washed with a saline solution (TBS/Tween-20, 1%) and incubated with BCIP (0.45 mg/mL) in substrate solution (100 mM Tris, pH 8.9; 100 mM NaCl; 2 mM MgCl2) for approximately 30 minutes. […]

KVTAMKCFLL-NH2 [SEQ ID NO: 1]
recognition of the peptide spot by IL-15Rα-Fc (IL-15Rα-Fc): recognizes; also recorded: recognition | antagonist effect of the peptide at different IL-15 concentrations [1]: dependent on IL-15 doses | protection from TNFα-induced apoptosis (DNA fragmentation) [2]: protected form TNF induced apoptosis | color development in beads incubated with IL-15Rα-Fc [3]: intense blue color | color development in beads incubated with IL-15Rα-Fc in presence of an excess of human IL-15 ([3]; excess of IL-15 (competition)): did not observed color
